Source: publication PMC10662218 (RSC Advances, 2023)

Biological target: Human insulin (monomeric insulin) (Homo sapiens, UniProt P01308)
Assay: intrinsic Tyr fluorescence quenching
Type: binding
Conditions: insulin 25 μM, compound 2-24 μM, double-log

Sequence of Human insulin (monomeric insulin) (P01308 25-54): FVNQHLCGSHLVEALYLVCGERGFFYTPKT
Sequence of Human insulin (monomeric insulin) (P01308 90-110): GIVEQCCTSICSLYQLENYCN

Compound | K b, 10^4 (M^-1) / 293 K
COc1cccc(/C=N/C(CO)(CO)CO)c1O [3b, (E)-2-((2-hydroxy-3-methoxybenzylidene)amino)-2-(hydroxymethyl)propane-1,3-diol] | 17.09 × 10^4 M^-1
COc1cccc(/C=N/C(C)(C)C)c1O [3a, (E)-2-((tert-butylimino)methyl)-6-methoxyphenol] | 2.18 × 10^4 M^-1
